One data set addresses Antares (Oplophorus gracilirostris, UniProt Q9GV45, A31E/A60N/A81I/F95D/I117V/K70R/L54V/L99Q/M102K/N193R/P142E/Q151K/Q38R/Q45L/V71I/Y165I). The experiment in a line: Enzymatic analysis of Antares and Fz analogs. Format: biochemical. The conditions noted are these: for Relative kcat: relative to Fz. The arrangement: His tag (inferred from purification on HisLink resin); made in house; host or cells: Escherichia coli. The method, then: Two milliliters of LB broth with 100 µg ml^–1 ampicillin was inoculated with a single colony of clone ATG-3802 (Antares codon optimized for Escherichia coli) and grown overnight at 37 °C. On the following day, the overnight culture was diluted 1:100 into a flask containing 50 ml of Terrific Broth and 100 µg ml^–1 ampicillin. The sample was grown at 37 °C with shaking (275 r.p.m.) for 4 h. The culture was chilled on ice, and 1% rhamnose was added to induce protein expression. The culture was placed in a 15 °C shaker (275 r.p.m.) and grown for 48 h. Cells were collected by centrifugation and resuspended in 10 ml of 100 mM HEPES (pH 7.5), 150 mM NaCl, 10 mM imidazole and 1 mg ml^–1 lysozyme. The resuspended cells were sonicated on ice (5 s on, 5 s off for 2 min, 12 amplitude). The sample was centrifuged (12,000g for 15 min), and 1 ml of HisLink resin (Promega) was added to the cleared lysate. Samples were incubated at 4 °C on an orbital mixer for 2 h. After incubation, the resin was washed three times with HisLink wash buffer (Promega). After the final wash, the sample was eluted (incubated 3 min with mixing) two times with 1 ml of HisLink elution buffer (Promega). The sample was dialyzed (10-kDa molecular weight cutoff, Thermo Fisher Slide-A-Lyzer) for 24 h in TBS and 50% glycerol.
To quantify luminescence as a function of substrate concentration, substrates were diluted to 30 μM and serially diluted in twofold steps into DPBS with 0.01% BSA in triplicate. Fifty microliters of each substrate dilution was then mixed with 50 μl of a solution of 20 pM Antares protein in DPBS with 0.01% BSA. Luminescence was measured immediately using a GloMax-Multi+ luminometer (Promega). Km and Vmax were then calculated using the Michaelis–Menten non-linear regression function in the program Prism (GraphPad).

On the set-up of data set [1]: method as in doi:10.1134/S1068162018020085. The conditions noted are these: cited from earlier work.
A further data set addresses T1, Antares luciferase (Oplophorus gracilirostris, UniProt Q9GV45, A31E/A60N/A81I/F95D/I117V/K70R/L54V/L99Q/M102K/N193R/P142E/Q151K/Q38R/Q45L/V71I/Y165I).
T1 construct: expressed in transfected cells; host or cells: transgenic mice with CAG-LSL-Antares at the H11 locus, crossed to Cre driver lines (neurons or liver)
Kind of data set: Non-invasive detection of Antares in the liver (Alb-cre driver). Format: in vivo, mouse. The conditions noted are these: 1.3 µmol i.p. An excerpt: Transgenic reporter mice with LSL-CAG-luciferase (Antares, FLuc or AkaLuc) inserted at the H11 locus (H11P) were generated by φC31-mediated recombination in blastocysts[48] by the Stanford Transgenic, Knockout and Tumor Model Center. For substrate comparisons, 2- to 4-month-old transgenic mice doubly hemizygous for a Camk2a-cre (Jackson Laboratory, 005359), Vgat-IRES-cre (Jackson Laboratory), Vglut2-IRES-cre (Jackson Laboratory, 016963) or Alb-cre (Jackson Laboratory, 003574) driver and a CAG-LSL-Antares, CAG-LSL-AkaLuc or CAG-LSL-FLuc reporter were anesthetized by inhalation of isoflurane for 5 min. An electric shaver was used to remove scalp hair in Camk2a-cre, Vglut2-IRES-cre or Vgat-IRES-cre mice or abdominal hair in Alb-cre mice. Nair depilatory cream (Church and Dwight) was then applied to the shaved area for 1 min, and remaining hair was removed with a piece of sterile gauze. […]
For mice expressing Antares, indicated amounts of Fz were dissolved in 480 µl of a PEG-300-based formulation consisting of 10% glycerol, 10% ethanol, 10% hydroxypropylcyclodextrin and 35% PEG-300 in water, or indicated amounts of lyophilized Fz analogs with P-407 vehicle were reconstituted in 150–500 µl of DPBS buffer. […] Integrated luminescence was quantified using the Fiji version of the ImageJ program (NIH)[49], with further statistical analysis performed in GraphPad Prism (version 9.0.0).

The nature of data set [2]: Toxicity in mice: necropsy and histopathology. Format: in vivo, C57BL/6 mice. The conditions noted are these: individual mice. The arrangement: key: 0: absent; 1: minimal; 2: mild; 3: moderate; 4: severe. As for the experimental part:
(§1) Male C57BL/6 mice of 2 months of age were killed by CO2 asphyxiation and cardiac exsanguination. All mice were weighed, and a complete gross examination of the external and internal organs was performed. […] Formalin-fixed tissues were processed routinely, embedded in paraffin, sectioned at 5 μm and stained with hematoxylin and eosin. All slides were blindly evaluated for histologic treatment-related effects (Supplementary Table 1) by a board-certified veterinary pathologist.

A short description of data set [3]: Toxicity in mice: necropsy and histopathology. Format: in vivo, C57BL/6 mice. The arrangement: key: 0: absent; 1: present. Particulars: individual mice. The method, then:
as §1

Read-outs that look alike come from different tables or passages of the source.

These results are taken from paper PMC10229426, “An optimized bioluminescent substrate for non-invasive imaging in the brain” (Nature Chemical Biology, 2023).

Sequence of Antares (Q9GV45 other isoform, or with tags, fused parts or gaps with the stated changes): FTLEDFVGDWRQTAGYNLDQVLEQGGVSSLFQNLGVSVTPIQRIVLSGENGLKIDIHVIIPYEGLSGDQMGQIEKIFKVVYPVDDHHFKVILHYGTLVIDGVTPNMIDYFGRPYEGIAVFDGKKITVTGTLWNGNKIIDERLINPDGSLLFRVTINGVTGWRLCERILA
T1 sequence (Q9GV45 other isoform, or with tags, fused parts or gaps with the stated changes): as above

Consider `O=c1c(Cc2ccco2)nc2c(Cc3ccccc3)[nH]c(-c3ccccc3)cn1-2` [Fz, furimazine, reference compound], for which the Km (in general, the concentration of substrate that gives half-maximal velocity) at Antares was determined as 0.38 µM. On Antares, the Relative kcat is recorded as 1.0. The “toxicity of daily i.v. injection” value in data set [1] (20 µg i.v. per day) was “minimal toxicity”; in data set [1] (60 µg (0.16 µmol) i.v. daily for 7 d) it was “caused liver and lung damage”.
As to `O=c1c(Cc2ccco2)nc2c(Cc3ccccc3)[nH]c(-c3cccc(F)c3F)cn1-2` [compound 6, cephalofurimazine], the “liver signal, 6 versus FFz” value at Antares luciferase is recorded as “threefold dimmer than FFz”. For the same compound, the “HPMC, heart perivascular myxomatous change score” value in data set [2] (1 day, 4.2 µmol, 20 mg P-407) worked out at 0; in data set [2] (3 days, 1.3 µmol, 12 mg P-407), 0; in data set [2] (3 days, 4.2 µmol, 20 mg P-407), 0; in data set [2] (5 days, 1.3 µmol, 12 mg P-407), 0; in data set [3] (3 days, 4.2 µmol, 20 mg P-407) it was 1; in data set [3] (5 days, 1.3 µmol, 12 mg P-407), 1. In addition, the “HT, heart telangiectasia score” value in data set [2] (1 day, 4.2 µmol, 20 mg P-407) is listed as 0; in data set [2] (3 days, 1.3 µmol, 12 mg P-407), 0; in data set [2] (5 days, 1.3 µmol, 12 mg P-407) it was 0; in data set [3] (1 day, 4.2 µmol, 20 mg P-407) it was 1; in data set [3] (3 days, 4.2 µmol, 20 mg P-407), 1; in data set [3] (5 days, 1.3 µmol, 12 mg P-407), 1. For the same compound, the “KCHMV, Kupffer cell hyperplasia and microvesicular vacuolation score” value in data set [2] (1 day, 4.2 µmol, 20 mg P-407) was found to be 0; in data set [2] (3 days, 1.3 µmol, 12 mg P-407), 0. For the same compound, on Antares, the Km was determined as 0.47 µM. In addition, at Antares, the Relative kcat was found to be 1.33.
